In patent US5098933A, “Pharmaceutically useful Michael addition products of unsaturated aldehydes and ketones and ascorbic acid” (Theracel Corporation, priority 1990, dated 1992):
Values joined by “and” are separate entries in the source; they are usually repeats but may differ in a detail not shown here. Equal values may be shown once. “Also recorded” adds a separate entry of the source.

Legend:
[1] = system: CD-1 mice; test: Immunotoxicity--Multi-dose: survival, weight, organ and histopathology assessment; format: in vivo; conditions: for Organ weight, Kidney / Organ weight, Liver / Organ weight, Lung / Organ weight, Spleen / Organ weight, Tail: individual animals A, B
Experimental: The immunotoxicological potential of KCPBL was evaluated in this experiment in which the study drug was administered to CD-1 mice for fourteen days (100 or 1000 mg/kg/day), either perorally (by gavage) or intravenously (tail vein). On the fifteenth day, the mice were weighed and sacrificed. The spleen, lungs, liver, kidneys and thymus were removed from each animal, fixed in formalin and histopathologically evaluated. In addition, a differential white blood cell count was obtained for a peripheral blood sample as well as the following tests performed: spleen cell counts (performed with Coulter Counter) and lymphocyte stimulation assays using PHA, CON-A and PWM techniques.
CD-1 mice were obtained from Charles Rivers Laboratories. The mice were quarantined for at least one week in a separate holding room prior to use in this experiment. Five mice per treatment were used. The mice were housed in a Thoren positive pressure laminar flow Maximizer caging system with each case controlled for water and air flow. The mouse rooms are maintained on a 12-hour light/dark cycle at a constant temperature of 76° F.
KCPBL containing approximately 50:50 ratio of the two epimers as determined by HPLC and optical rotation analysis was used in this study. An amount of drug was calculated to deliver the equivalent of 100 or 1000 mg/kg, either by the oral or intravenous route. The average weight of the mice was 29.5 grams.
[…] Mice were administered KCPBL daily for a total of fourteen days via the oral (0.2 ml of a 147.5 mg/ml solution or a 29.5 mg/ml solution by gavage) and intravenous route (0.2 ml of 147.5 mg/ml solution or a 29.5 mg/ml solution by tail vein) to achieve a dose of 100 or 1000 mg/kg, respectively. The test dose was prepared fresh daily and dissolved in sterile non-pyrogenic saline. On the fifteenth day the mice were weighed, sacrificed, and the spleens, lungs, livers, kidneys and thymuses removed. These organs were weighed and, except for the spleens, the formalin-fixed organs were analyzed by a veterinary pathologist. Only two randomly-selected sets of animal organs per treatment group were histopathologically evaluated since the remaining three animals were used to isolate splenic lymphocytes for use in cellular immunoassays.
A leukocyte differential was obtained on peripheral blood samples and spleen cell counts (performed with Coulter Counter), and an IL-2 induction assessment as well as standard lymphocyte stimulation assays using PHA, CON-A and PWM conducted.
Survival was assessed through the fifteenth day. All the surviving mice were sacrificed on the fifteenth day, predetermined organs removed, place in formalin, and subjected to for histopathologic examination by a veterinary pathologist.
The individual spleens of three mice from control and test groups were processed to isolate lymphocytes and the protocols for lymphocyte blastogenesis, IL-2 induction and assay were performed. The remaining two mice in each group were sacrificed and their lungs, liver, kidney, and spleen were fixed in formalin and sent to AnMed Biosafe for histopathologic examination.

[2] = system: interleukin-2; test: Immunomodulation panel: In vitro production of interleukin-2 (CTLL2 bioassay); format: in vivo, C57BL/6J mice
Text: The bioassay uses the IL-2 growth-dependent cell line, CTLL2 as the indicator cell line to quantitate IL-2 in a biological fluid. The assay utilizes tritiated thymidine uptake by these cells as a measure of cellular proliferation. A reference standard obtained from the NCI Biological Response Modifiers Program is employed to construct a standard curve and to calculate Half Maximal Units (HMU) activity per ml. The assay was modified from one reported by Gillis et al. (J. Immunol. 120: 2927, 1978) and was recently reviewed as a clinical bioassay (Shalaby and Pallidino, In: Manual of Clinical Laboratory Immunology, 3rd Ed., p 300, American Society for Microbiology, Washington, D.C.).
2. Each sample is assayed in triplicate, over dilutions of 1/2, 1/4, 1/8, and 1/16 in a 96 well flat bottom plate. A totoal of eight (8) samples may be assayed in a single 96 well plate.
Analysis: Values are obtained from counter as counts per minute (cpm). The average of each triplicate sample dilution count is calculated. A standard curve of known half maximal units of the IL-2 standard dilution/cpm is constructed using a PC program for generation of the least squares line of best fit. IL-2 values are thus assessed for each sample based upon the standard curve and reported.
Daily intraperitoneal injections of KCPBL were administered to normal animals and immunological responsiveness to mitogens and specific antigen evaluated.
Doses and schedule--Doses were selected to bracket the range generally known to be immunostimulatory in past experiments, 1, 10, and […] daily for four days.
As an assessment of immunopathology in the above screening test panel, the cellularity of the spleen was evaluated by determination of the total number of splenocytes harvested. Humoral-mediated immunity was measured by enumerating IgM plaque-forming cells to the T-dependent antigen sheep erythrocytes. Cell-mediated immunity was evaluated as described above by determination of the ability of the splenocytes to produce the lymphokine interleukin-2 in response to stimulation by the mitogen concanavalin-A. Another measurement of cell-mediated immunity was the responsiveness of the splenic lymphocytes to the mitogens concanavalin-A (Con-A); phytohemagglutinin (PHA) and pokeweed mitogen (PWM) in the lymphocyte blastogenesis assay. In the latter test, the activation and proliferation of the lymphocytes to the mitogens represents the capability of the cells to sequentially pass from G0 to G1 and the S phse of the cell cycle. The responsiveness of the cells was measured by the uptake of radiolabeled 14C-thymidine.

[3] = group 2 (1000 mg/kg P.O.), 1000 mg/kg
[4] = group 3 (1000 mg/kg IV), 1000 mg/kg
[5] = group 5 (100 mg/kg IV), 100 mg/kg

O=C1CCC(C2(O)C(=O)OC3C(O)COC32O)C1 (stereo not shown) [KCPBL]
PMV:Mono ratio ([1]; 100 mg/kg IV (group 5)): 10/90 | PMV:Mono ratio ([1]; 1000 mg/kg IV (group 3)): 11/89 | PMV:Mono ratio ([1]; 1000 mg/kg P.O. (group 2)): 21/79 | generalized toxicity / immunotoxic effect ([1]; 100 or 1000 mg/kg, either route): None of the mice showed evidence of generalized toxicity; also recorded: no evidence of a immunotoxic effect | weight loss ([1]; 100 or 1000 mg/kg/day, 14 days, i.v. or p.o.): No clinically significant weight loss | survival / deaths ([1]; 14 days dosing): Except for treatment group 4 (KCPBL 100 mg/kg perorally), all animals survived to the conclusion of the trial; also recorded: In group 4, two animals were found dead on day 4 and another animal dead on day 10 | Organ weight, Kidney [1, 3]: 271.7 mg and 269.8 mg | Organ weight, Liver [1, 3]: 1710 mg and 1780 mg | Organ weight, Lung [1, 3]: 192.5 mg and 175.8 mg | Organ weight, Spleen [1, 3]: 102.6 mg and 103.7 mg | Organ weight, Tail [1, 3]: 236.2 mg and 229.1 mg | Organ weight, Kidney [1, 4]: 287.1 mg and 225.3 mg | Organ weight, Liver [1, 4]: 1760 mg and 1310 mg | Organ weight, Lung [1, 4]: 209.1 mg and 177.1 mg | Organ weight, Spleen [1, 4]: 110.8 mg and 75.6 mg | Organ weight, Tail [1, 4]: 235.8 mg and 239.6 mg | Organ weight, Kidney [1, 5]: 235.4 mg and 377.9 mg | Organ weight, Liver [1, 5]: 1570 mg and 2350 mg | Organ weight, Lung [1, 5]: 177.9 mg and 192.3 mg | Organ weight, Spleen [1, 5]: 88.7 mg and 104.2 mg | Organ weight, Tail [1, 5]: 215.1 mg and 248.2 mg | Histopathology (lung, liver, kidney, spleen, thymus, tail) ([1]; groups 1, 2, 3, and 5): all tissues examined were considered to be within the normal range | WBC differentials ([1]; peripheral blood, granulocyte and mononuclear cells): within normal limits | organ systems (weights, histopathological assessments) ([1]; vs sham-injected controls): within normal weight limits | IL-2 Half Maximal Units ([2]; 1.0 mg/kg i.p.): 4.48 ± 1.5 Half Maximal Units [10^6 Cells | IL-2 Half Maximal Units ([2]; 10 mg/kg i.p.): 4.33 ± 1.4 Half Maximal Units [10^6 Cells | IL-2 Half Maximal Units ([2]; 100 mg/kg i.p.): 4.14 ± 1.3 Half Maximal Units [10^6 Cells | IL-2 production vs controls ([2]; drug-treated animals): produced significantly more IL-2 than controls
